Data: publication PMC11725581, “Developing novel Lin28 inhibitors by computer aided drug design” (Cell Death Discovery, 2025)
Changes are numbered by the printed parent chain.

What was measured:
Lin28b ZKD [1] = biological target: T1, Lin28b ZKD (Homo sapiens, UniProt Q6ZN17); test: Fluorescence polarization (FP) assay, Lin28b ZKD:pre-let-7d interaction; format: binding; settings: for IC50: 10 nM pre-let-7d probe, 1 μM Lin28b ZKD; for activity in protein-based assays: FP / EMSA
T1 sequence (Q6ZN17 127-166 limits assumed): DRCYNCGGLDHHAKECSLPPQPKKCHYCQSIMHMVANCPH
Experimental: (§1) We conducted two biochemical assays, FP and EMSA, to validate the predicted compounds. To optimize the FP assays, we performed a series of titrations using: (1) FAM-labeled pre-let-7d RNA probe, (2) Lin28b ZKD protein, and (3) non-labeled pre-let-7 probe as a competitor (Fig. 2A). These assays yielded the optimal concentrations required for the subsequent FP validation assays, namely 10 nM for the pre-let-7d probe and 1 μM for Lin28b ZKD protein. The FP signal from the free probe was set as 0%, while the signal from the probe-ZKD complex in the absence of compounds was set as 100%. C1632 was used as a control Lin28 inhibitor (Fig. 2B). […] Since the docking pocket is almost identical between Lin28a and Lin28b homologs, we repeated the FP assays using Lin28a ZKD (Figure S2).
(§2) The fluorescein amidites (FAM)-tagged pre-Let-7d probe with the sequence of […] was purchased from Integrated DNA Technologies (IDT). The probe at the concentrations ranging from 1 nM to 50 uM was incubated with Lin28B (ZKD) or Lin28 (CSD+ZKD) to a final volume of 30 uL at room temperature for 20 min. To read the fluorescence, a TECAN 500 machine was used. Fluorescence polarization was calculated using the following equation:
P=(Fparrallel−Fperpendicular)/(Fparrallel+FperpendicularP)
where P is the fluorescence polarization reading, F parallel is the fluorescence intensity acquired from the parallel excitation plane, and F perpendicular is the fluorescence intensity acquired from the perpendicular direction of the excitation plane. The total fluorescence intensity is estimated using the following equation:
F=Fparallel+2FperpendicularF.
(§3) All the raw FP signal data from the TECAN 500 FP results were analyzed using Prism 8.0 (GraphPad, San Diego, CA, USA); normalized curves were plotted and IC50 values were estimated. All FP data were repeated three to five times.
Figure S1. Lin28b ZKD protein was incubated with the indicated compounds at the concentration of 0, 0.1, 0.2, 0.5, 1, 2, 5, 10, 20, 50, 100, and 200uM. FP signals were measured and plotted relative to that from vehicle.

[2] = tested on: Lin28b protein expression in DuNE cells; test: Lin28b protein levels by immunoblotting in DuNE cells; format: cell-based; settings: 20uM, 72 h
Experimental: We further tested whether the 13 candidate compounds could penetrate the cell membrane, endure cell-mediated metabolism and excretion, and inhibit Lin28 activities inside cancer cells. […] Since let-7 and Lin28b mutually regulate each other’s expression, increased let-7 expression by Lin28 inhibitors would suppress Lin28b protein levels.
Fig. 3 Validate CADD predicted compounds by cell-based assays. A, B DuNE cells were treated with Lin28b inhibitors for 72 h. Let-7d RNA levels were measured by real-time qPCR (A) and Lin28b protein levels were measured by immunoblotting (B). […] Cell proliferation rates were measured by Incucyte. D Overlay of 1H-15N HSQC spectra for Lin28b-ZKD (black), Lin28b-ZKD + Ln15 (orange), and Lin28b-ZKD + Ln268 (blue). Ligands were added in a 20:1 molar ratio. Approximately 20 residues are seen to shift (from black to orange/blue), with ca. 5 resonances disappearing for Lin28b-ZKD in the presence of Ln268. E Overlay of the 20 NMR models for 2CQF (gray) and 2LI8 (blue) showing the rearrangement of residues 137–160 in going from Lin28b-ZKD alone to the conformation with RNA present. The conformation of Lin28b-ZKD in the presence of the ligands described herein might resemble that of 2LI8, but with a larger conformational spread. All results are presented as the mean ± SD.
Total RNA was extracted by TRIZOL reagent (Invitrogen), treated with deoxyribonuclease and reversely transcribed by random hexamers and superscript II (Invitrogen). Real-time qPCR was performed on the ABI PRISM 7900 HT system (Applied Biosystems) using the FastStart Universal SYBR Green Master mix (Roche) following standard protocol as we reported. All real-time qPCR assays were carried out in triplicates from three independent cDNA syntheses. For immunoblotting assays, whole cell lysis was extracted by a buffer containing 50mM of Tris pH8.0, 150mM of NaCl, 1% NP40, 0.5% sodium deoxycholate, 0.1% SDS and proteinase and phosphatase inhibitors (Roche). Protein lysis separated by SDS-PAGE, transferred to polyvinylidene difluoride membrane, and blotted by specific antibodies.

Lin28a ZKD = biological target: T2, Lin28a ZKD (Homo sapiens, UniProt Q9H9Z2); test: Fluorescence polarization (FP) assay, Lin28a ZKD:pre-let-7 interaction; format: binding; settings: 0-200 uM
T2 sequence (Q9H9Z2 137-176 limits assumed): T1 sequence (Q6ZN17 127-166 limits assumed) with S17K, Y27F, M32S, N37S, H40L
Experimental: as §1
as §2, with “equation: […]” for “equation:”
as §3
Figure S2. Lin28a ZKD protein was incubated with the indicated compounds at the concentration of 0, 0.1, 0.2, 0.5, 1, 2, 5, 10, 20, 50, 100, and 200uM. FP signals were measured and plotted relative to that from vehicle.

Lin28b ZKD [3] = biological target: T1, Lin28b ZKD; test: EMSA, Lin28b ZKD:pre-let-7d complex formation; format: binding; settings: 1 μM Lin28 ZKD, 10 nM IRDye800-labeled pre-let-7d probe
Experimental: We next validated the newly developed compounds using EMSA, a non-florescent-based assay to detect Lin28b ZKD:pre-let-7 complex formation. Similar to the FP assays, we first optimized the experimental conditions by titrating: (1) IRDye800-labeled pre-let-7d RNA probe, (2) Lin28b ZKD protein, and (3) non-labeled pre-let-7 probe as a competitor (Fig. 2C). For the validation experiments, 1 μM Lin28 ZKD and 10 nM of IRDye800-labeled pre-let-7d probe were mixed with each candidate compound. Compounds C1632 and Ln15 were used as control Lin28 inhibitors, respectively. […] Regardless, we use these two biochemical assays to shortlist the most promising compounds for further characterization. […] While our inhibitors directly target the Lin28 ZKD, it is unclear whether C1632 may bind to domains other than the ZKD or allosterically disrupt Lin28’s capacity to bind its RNA substrates.
EMSA followed the standard protocols we published. An IRDye800CWN-labeled pre-Let-7d RNA probe (5’-IRD800CWN-[…]-3’) was purchased from IDT (Coralville, IA, USA). Lin28a or Lin28b proteins were incubated with 300 nM of probe in a standard 20 uL EMSA reaction in a reaction buffer containing 20 mM HEPES-NaOH, pH 7.4, 2 mM DTT, 3 mM MgCl2, 0.05% NP-40, protease inhibitors, and 0.1 ug poly[dI:dC]. After incubation for 30 min at 37 °C, reactions were loaded onto 4% non-denatured polyacrylamide gel in 0.5× TBE buffer. The RNA oligo bands were visualized by using the Li-Cor Odyssey 9120 Infrared Imaging System.

activity in protein-based assays (Lin28b ZKD [1])	potency in blocking the Lin28a ZKD:pre-let-7 interaction (FP) relative to parents (Lin28a ZKD)	Structure (SMILES)	effect on Lin28b protein expression [2]	inhibition of Lin28b ZKD:pre-let-7d complex formation (EMSA) (Lin28b ZKD [3])	further results
		O=c1cccc(-c2nc(=O)c3cc(O)c(F)cc3[nH]2)[nH]1 [Ln115]			IC50 (Lin28b ZKD [1]): 21 µM
		CC(C)(C)c1ccc(O)c(Nc2cccc(=O)[nH]2)c1 [Ln250]			FP potency relative to Ln15 (Lin28b ZKD [1]; FP assays used for SAR guided design): outperformed Ln15
higher potency in FP assays	more potent than Ln15 and Ln115	CC(C)c1cc(Nc2csc(=O)[nH]2)c(O)cc1O [Ln267]	suppressed Lin28b protein expression		IC50 (Lin28b ZKD [1]): 4.67 µM
		Cc1cccc(Nc2csc(=O)[nH]2)c1O [Ln269]	suppressed Lin28b protein expression	capable of inhibiting Lin28:pre-let-7d complex formation in a dose-dependent manner	
	more potent than Ln15 and Ln115	O=c1cccc(-c2nc3cc(F)c(O)c(F)c3c(=O)[nH]2)[nH]1 [Ln272]	suppressed Lin28b protein expression		
		Cc1c(F)c(O)c(F)c2c(=O)[nH]c(-c3cccc(=O)[nH]3)nc12 [Ln273]	suppressed Lin28b protein expression		
		Cc1cc2[nH]c(-c3cccc(=O)[nH]3)nc(=O)c2cc1O [Ln274]		capable of inhibiting Lin28:pre-let-7d complex formation in a dose-dependent manner	
inactive		Cc1cc(-c2nc(=O)c3cc(O)c(F)cc3[nH]2)[nH]c(=O)c1 [Ln275]			
		O=c1cccc(-c2nc(=O)c3cc(O)c(CO)cc3[nH]2)[nH]1 [Ln276]		capable of inhibiting Lin28:pre-let-7d complex formation in a dose-dependent manner	
inactive		CN(C)c1ccc(=O)[nH]c1-c1nc(=O)c2cc(O)c(F)cc2[nH]1 [Ln277]			
active	more potent than Ln15 and Ln115	Cn1cnc2c(=O)[nH]c(-c3nc(=O)c4cc(O)c(F)cc4[nH]3)cc21 [Ln279]		capable of inhibiting Lin28:pre-let-7d complex formation in a dose-dependent manner	
inactive		Cc1cc(O)cc2c(=O)nc(-c3nccc(=O)[nH]3)[nH]c12 [Ln282]			
inactive		O=c1cccc(Nc2ccc(O)cc2O)[nH]1 [Ln295]			
inactive		O=c1cccc(Nc2ccccc2O)[nH]1 [Ln296]			
active	more potent than Ln15 and Ln115	O=c1cccc(Nc2ncc(O)cc2O)[nH]1 [Ln298]	suppressed Lin28b protein expression	capable of inhibiting Lin28:pre-let-7d complex formation in a dose-dependent manner	
active	more potent than Ln15 and Ln115	O=c1cccc(Nc2ccncc2O)[nH]1 [Ln300]	suppressed Lin28b protein expression	capable of inhibiting Lin28:pre-let-7d complex formation in a dose-dependent manner	
	more potent than Ln15 and Ln115	Cc1c(O)cnc(Nc2cccc(=O)[nH]2)c1O [Ln302]		capable of inhibiting Lin28:pre-let-7d complex formation in a dose-dependent manner	IC50 (Lin28b ZKD [1]): 3.63 µM
	more potent than Ln15 and Ln115	O=c1cccc(Nc2cccc(O)c2O)[nH]1 [Ln306]		capable of inhibiting Lin28:pre-let-7d complex formation in a dose-dependent manner	
